Measurements: US8895282B2, “Use of a substance for manufacturing of a medicament for treatment of common cold” (Tanomed AB, priority 2008, dated 2014)
“And” between values parts separate entries of the source, which are not always exact repeats. Identical values can stand only once. Like-named read-outs stand apart in the source and are kept apart here.

Experiments:
Rhinovirus 7 [1] = test system: Rhinovirus 7
Method: (§1) Virus concentration=dil 2. Incubation during 30 min in heater keeping 37° C. After 30 min the effect of the hydrogen peroxide is aborted with the addition of 0.1 ml catalase solution into the vial (=1 kU/ml). • 0.7 ml 5% glucose solution+0.1 ml dil 1 of RV7 (=a7) or RV8 (=a8)+0.1 ml of the hydrogen peroxide solution (=final concentration in the vial=[…]). Incubation and abortion of the hydrogen peroxide effect similar as in a).
(§2) Altogether 4 vials (Eppendorff): a7, a8, b7 and b8.
(§3) After the addition of catalase, samples are transferred to a 96-well plate with flat bottom according to table 3.

Rhinovirus 8 [2] = test system: Rhinovirus 8
Method: as §1, §2, §3

Rhinovirus 8 [3] = conditions: for Infection of WI 38 cells after 10 days of inoculation: 10 U GO + 5% glucose added after 2 days
Rhinovirus 7 [4] = conditions: for Infection of WI 38 cells after 10 days of inoculation: 10 U GO + 5% glucose added after 2 days
Rhinovirus 7 [5] = conditions: for Day 3 (cytopathic effect of RV 7 on WI 38 cells) / Day 5 (cytopathic effect of RV 7 on WI 38 cells) / Day 7 (cytopathic effect of RV 7 on WI 38 cells): 20 U GO/ml; for Incubation time for inactivation of rhinovirus: glucose oxidase 20 U/ml
Method: Virus: Rhinovirus 7, purchased from ATCC (VR-1117), was used as a representative for the rhinovirus group. In the assays the dilutions 10^−2 and 10^−3 were used. […] 0.3 ml of each dilution was added into the vials.
Cell culture: Human lung cell fibroblasts (WI 38, ATCC-CCL-75) was used for cytopathic effect detection. 10-fold serial dilutions had been made from the concentrated viral suspension. […] Then the media was changed to RPMI with 2% of fetal calf serum, which was preserved during the assay. The cells were incubated in CO2enriched air at 37° C. During the experiments a cell culture of 17th-18^thpassage was used.
Catalase: From Sigma-Aldrich™. A solution of 100 000 U/ml was prepared from the original solution of 10^6 U/ml.
H2O2: a 20% solution was diluted in Phosphate buffered saline (PBS) to a 0.5% and a 0.05% solution. 0.1 ml was added to the vials, which means 0.05% or 0.005% in the vials.
A solution of 200 U/ml and 600 U/ml was prepared from the original solution of 6000 U/ml.
In order to evaluate whether the effect of the hydrogen peroxide was a direct effect on the virus itself or a cytoprotective effect, we preincubated the virus with the hydrogen peroxide, before it was transferred to the wells with the cells. The WI 38 cells are also sensitive to hydrogen peroxide, and therefore it was necessary to add catalase before inoculation into the wells. […] This design would also reveal if the inhibitory effect was only a virostatic one, or if it could damage the virions irreversibly.
In table 1 the content of each of the 10 vials (Eppendorf) is listed. The vials were incubated in a heater keeping a stable temperature of 37° C. 1000 U of catalase was added after 15, 30 and 60 min of incubation. 2×50 μl from each vial was transferred to duplicate cell wells (a 96-well plate).

[6] = 40 U/ml of Glucose Oxidase, high initial inoculate
[7] = 50 μl a7: RV7 dil 2 preincubated 30 min with 40 U/ml Glucose Oxidase, then catalase
[8] = 50 μl a8: RV8 dil 2 preincubated 30 min with 40 U/ml Glucose Oxidase, then catalase
[9] = Glucose Oxidase added into the wells 2 days after the initial incubation
[10] = RV 7 dil 10^−2, preincubation 15 min
[11] = RV 7 dil 10^−2, preincubation 30 min
[12] = RV 7 dil 10^−2, preincubation 60 min
[13] = RV 7 dil 10^−3, preincubation 15 min
[14] = RV 7 dil 10^−3, preincubation 30 min
[15] = RV 7 dil 10^−3, preincubation 60 min

## Glucose oxidase [GO]
Rhinovirus 7 [1]; [6]
  Inactivation of RV 7: able to inactivate
Rhinovirus 7 [1]; [7]
  Infection of WI 38 cells after 2 days of inoculation: 0
  Infection of WI 38 cells after 10 days of inoculation: 0
Rhinovirus 8 [2]; [6]
  Inactivation of RV 8: able to inactivate
Rhinovirus 8 [2]; [8]
  Infection of WI 38 cells after 2 days of inoculation: 0
  Infection of WI 38 cells after 10 days of inoculation: 0
Rhinovirus 8 [3]; well E2, 50 μl RV8 dilution 2
  Infection of WI 38 cells after 10 days of inoculation: 2+
Rhinovirus 8 [3]; well E4, 50 μl RV8 dilution 4
  Infection of WI 38 cells after 10 days of inoculation: 0
Rhinovirus 8 [3]; wells D9, C9, 10 μl RV8 dilution 1
  Infection of WI 38 cells after 10 days of inoculation: 2+ and 3+
Rhinovirus 8 [3]; [9]
  Spread of viral infection to other cells: could prevent the spread of viral infection
Rhinovirus 7 [4]; well E1, 50 μl RV7 dilution 2
  Infection of WI 38 cells after 10 days of inoculation: 2+
Rhinovirus 7 [4]; well E3, 50 μl RV7 dilution 4
  Infection of WI 38 cells after 10 days of inoculation: 0
Rhinovirus 7 [4]; wells F9, E9, 10 μl RV7 dilution 1
  Infection of WI 38 cells after 10 days of inoculation: 1+
Rhinovirus 7 [4]; [9]
  Spread of viral infection to other cells: could prevent the spread of viral infection
Rhinovirus 7 [5]
  GO concentration having an effect on the Rhinovirus infection: less than 20 U/ml
  Incubation time for inactivation of rhinovirus: ≤ 30 min
Rhinovirus 7 [5]; [10]
  Day 3 (cytopathic effect of RV 7 on WI 38 cells): −
  Day 5 (cytopathic effect of RV 7 on WI 38 cells): −
  Day 7 (cytopathic effect of RV 7 on WI 38 cells): −
Rhinovirus 7 [5]; [11]
  Day 3 (cytopathic effect of RV 7 on WI 38 cells): −
  Day 5 (cytopathic effect of RV 7 on WI 38 cells): −
  Day 7 (cytopathic effect of RV 7 on WI 38 cells): −
Rhinovirus 7 [5]; [12]
  Day 3 (cytopathic effect of RV 7 on WI 38 cells): −
  Day 5 (cytopathic effect of RV 7 on WI 38 cells): −
  Day 7 (cytopathic effect of RV 7 on WI 38 cells): −
Rhinovirus 7 [5]; [13]
  Day 3 (cytopathic effect of RV 7 on WI 38 cells): −
  Day 5 (cytopathic effect of RV 7 on WI 38 cells): −
  Day 7 (cytopathic effect of RV 7 on WI 38 cells): −
Rhinovirus 7 [5]; [14]
  Day 3 (cytopathic effect of RV 7 on WI 38 cells): −
  Day 5 (cytopathic effect of RV 7 on WI 38 cells): −
  Day 7 (cytopathic effect of RV 7 on WI 38 cells): −
Rhinovirus 7 [5]; [15]
  Day 3 (cytopathic effect of RV 7 on WI 38 cells): −
  Day 5 (cytopathic effect of RV 7 on WI 38 cells): −
  Day 7 (cytopathic effect of RV 7 on WI 38 cells): −
Rhinovirus 7 [5]; 20 U/ml of Glucose Oxidase
  Amount of H2O2 produced by Glucose Oxidase, equivalent: more than 0.005 % H2O2
Rhinovirus 7 [5]; GO less than 20 U/ml
  Hydrogen peroxide concentration corresponding to the effective GO concentration: more than 10 mM
Rhinovirus 7 [5]; Glucose Oxidase or 0.05% hydrogen peroxide solution, 7 days of incubation, no sign of recovery
  Reversibility of the inactivation of RV 7: irreversible
Rhinovirus 7 [5]; WI 38 cells
  Glucose Oxidase concentration sufficient for complete inactivation of RV 7: 20 U/ml
Rhinovirus 7 [5]; after 5 days of incubation, even after only 15 min preincubation and higher RV 7 concentration
  Cytopathic effect in wells where Glucose Oxidase had been incubated with RV 7: no cytopathic effect
Rhinovirus 7 [5]; listed as glucose oxidase
  Incubation time for inactivation of rhinovirus: less than 30 minutes
